Assay results from article PMC3402552 (Journal of Medicinal Chemistry, 2012).

Legend:
5-HT2B = 5-HT2B (Homo sapiens, UniProt P41595); experiment: PDSP radioligand competition binding, 5-HT2B; conditions: Figure 9B
5-HT2A F6.52L mutant = conditions: F6.52L mutation; cited from earlier work
5-HT2A F6.51L mutant = conditions: cited from earlier work
5-HT2A S3.36A/C mutant = conditions: S3.36A/C mutations; cited from earlier work
5-HT2A W6.48A mutant = conditions: cited from earlier work
5-HT1A = biological target: T1, 5-HT1A (Homo sapiens, UniProt P08908); conditions: 5-HTR profiling
T1 sequence (P08908 1-422): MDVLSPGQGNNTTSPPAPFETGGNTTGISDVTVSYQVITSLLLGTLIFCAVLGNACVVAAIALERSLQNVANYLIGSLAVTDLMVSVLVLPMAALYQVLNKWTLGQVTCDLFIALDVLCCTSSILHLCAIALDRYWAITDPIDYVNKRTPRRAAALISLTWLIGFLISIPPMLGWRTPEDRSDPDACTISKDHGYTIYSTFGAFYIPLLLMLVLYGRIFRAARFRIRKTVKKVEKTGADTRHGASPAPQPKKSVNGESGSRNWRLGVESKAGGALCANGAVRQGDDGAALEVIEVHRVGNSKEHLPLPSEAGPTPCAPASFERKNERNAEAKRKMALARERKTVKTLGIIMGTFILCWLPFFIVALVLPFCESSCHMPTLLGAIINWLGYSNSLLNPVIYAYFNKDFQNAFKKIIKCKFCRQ

5-HT7 = 5-HT7 (Homo sapiens, UniProt P34969); conditions: 5-HTR profiling
Sequence of 5-HT7 (P34969 whole entry, species assumed): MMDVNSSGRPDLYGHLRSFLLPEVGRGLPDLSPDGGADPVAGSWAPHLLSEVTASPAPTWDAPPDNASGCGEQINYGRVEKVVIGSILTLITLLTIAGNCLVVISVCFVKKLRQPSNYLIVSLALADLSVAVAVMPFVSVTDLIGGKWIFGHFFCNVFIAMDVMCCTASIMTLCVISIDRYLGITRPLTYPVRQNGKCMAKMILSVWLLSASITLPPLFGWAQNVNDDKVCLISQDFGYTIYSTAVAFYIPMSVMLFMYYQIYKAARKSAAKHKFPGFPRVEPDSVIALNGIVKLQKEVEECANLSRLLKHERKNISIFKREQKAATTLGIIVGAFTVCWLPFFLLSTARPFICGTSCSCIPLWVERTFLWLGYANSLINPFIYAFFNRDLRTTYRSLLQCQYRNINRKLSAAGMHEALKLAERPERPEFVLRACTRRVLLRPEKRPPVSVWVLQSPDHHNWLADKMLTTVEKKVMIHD

5-HT2A = 5-HT2A (Homo sapiens, UniProt P28223); experiment: PDSP radioligand competition binding, 5-HT2A; conditions: 5-HTR profiling
Sequence of 5-HT2A (P28223 whole entry, species assumed): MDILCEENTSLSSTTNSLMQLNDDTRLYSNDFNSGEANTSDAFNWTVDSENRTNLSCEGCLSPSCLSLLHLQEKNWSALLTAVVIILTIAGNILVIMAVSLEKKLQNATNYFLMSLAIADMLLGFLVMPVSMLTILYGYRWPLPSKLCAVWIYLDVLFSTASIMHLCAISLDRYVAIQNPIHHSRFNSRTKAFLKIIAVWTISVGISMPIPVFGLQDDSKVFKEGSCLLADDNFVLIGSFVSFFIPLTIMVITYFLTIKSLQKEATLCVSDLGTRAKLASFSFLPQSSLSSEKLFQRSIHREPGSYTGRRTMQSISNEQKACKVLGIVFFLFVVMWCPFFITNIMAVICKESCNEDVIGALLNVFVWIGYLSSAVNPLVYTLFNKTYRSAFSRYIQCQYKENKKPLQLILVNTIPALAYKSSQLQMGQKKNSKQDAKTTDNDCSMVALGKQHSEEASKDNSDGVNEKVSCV

5-HT1E = 5-HT1E (Homo sapiens, UniProt P28566); experiment: PDSP radioligand competition binding, 5-HT1E; conditions: 5-HTR profiling
Sequence of 5-HT1E (P28566 whole entry, species assumed): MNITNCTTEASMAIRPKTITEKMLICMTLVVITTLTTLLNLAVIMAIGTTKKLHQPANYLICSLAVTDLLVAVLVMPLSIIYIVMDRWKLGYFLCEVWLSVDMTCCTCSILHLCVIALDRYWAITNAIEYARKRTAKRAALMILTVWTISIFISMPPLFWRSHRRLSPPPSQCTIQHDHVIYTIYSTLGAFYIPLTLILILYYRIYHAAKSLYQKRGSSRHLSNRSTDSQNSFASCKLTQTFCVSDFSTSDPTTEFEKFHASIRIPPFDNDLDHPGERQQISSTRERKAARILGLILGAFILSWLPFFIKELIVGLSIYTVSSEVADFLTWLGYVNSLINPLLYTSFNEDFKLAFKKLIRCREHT

5-HT1B = 5-HT1B (Homo sapiens, UniProt P28222); experiment: PDSP radioligand competition binding, 5-HT1B; conditions: 5-HTR profiling
Sequence of 5-HT1B (P28222 whole entry, species assumed): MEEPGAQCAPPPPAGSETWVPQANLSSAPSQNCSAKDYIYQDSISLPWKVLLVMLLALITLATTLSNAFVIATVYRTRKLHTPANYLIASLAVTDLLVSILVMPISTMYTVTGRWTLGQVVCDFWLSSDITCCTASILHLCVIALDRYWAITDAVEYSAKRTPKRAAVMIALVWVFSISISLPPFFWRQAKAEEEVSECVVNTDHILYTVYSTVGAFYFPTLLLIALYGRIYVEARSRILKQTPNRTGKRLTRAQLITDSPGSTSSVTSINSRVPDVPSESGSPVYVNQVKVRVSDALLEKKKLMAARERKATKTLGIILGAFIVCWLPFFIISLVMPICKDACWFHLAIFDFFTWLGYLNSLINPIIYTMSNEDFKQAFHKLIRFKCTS

5-HT6 = 5-HT6 (Homo sapiens, UniProt P50406); conditions: 5-HTR profiling
Sequence of 5-HT6 (P50406 whole entry, species assumed): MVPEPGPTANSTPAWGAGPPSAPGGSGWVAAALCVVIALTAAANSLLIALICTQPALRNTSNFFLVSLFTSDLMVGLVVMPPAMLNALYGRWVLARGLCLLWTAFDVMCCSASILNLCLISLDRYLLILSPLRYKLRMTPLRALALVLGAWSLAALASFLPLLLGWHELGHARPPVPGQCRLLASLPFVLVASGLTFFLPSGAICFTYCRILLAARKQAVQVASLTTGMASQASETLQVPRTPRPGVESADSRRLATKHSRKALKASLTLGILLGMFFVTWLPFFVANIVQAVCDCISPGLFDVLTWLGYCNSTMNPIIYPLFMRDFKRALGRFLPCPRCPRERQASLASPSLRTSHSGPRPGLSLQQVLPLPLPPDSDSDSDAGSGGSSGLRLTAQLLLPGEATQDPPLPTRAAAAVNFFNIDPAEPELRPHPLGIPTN

5-HT5a = 5-HT5a (Homo sapiens, UniProt P47898); conditions: 5-HTR profiling
Sequence of 5-HT5a (P47898 whole entry, species assumed): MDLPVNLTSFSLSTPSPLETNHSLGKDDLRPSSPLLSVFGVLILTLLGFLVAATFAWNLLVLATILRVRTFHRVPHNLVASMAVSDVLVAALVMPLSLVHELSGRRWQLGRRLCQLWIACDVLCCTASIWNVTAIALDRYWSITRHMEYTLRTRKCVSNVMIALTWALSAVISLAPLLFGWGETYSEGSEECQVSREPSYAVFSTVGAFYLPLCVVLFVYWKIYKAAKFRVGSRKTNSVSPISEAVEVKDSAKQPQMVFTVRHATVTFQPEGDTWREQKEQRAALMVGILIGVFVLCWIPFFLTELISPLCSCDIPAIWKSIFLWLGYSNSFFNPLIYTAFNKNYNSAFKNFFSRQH

5-HT3 = biological target: T2, 5-HT3 (Homo sapiens, UniProt P46098); experiment: PDSP radioligand competition binding, 5-HT3; conditions: 5-HTR profiling
T2 sequence (P46098 24-478): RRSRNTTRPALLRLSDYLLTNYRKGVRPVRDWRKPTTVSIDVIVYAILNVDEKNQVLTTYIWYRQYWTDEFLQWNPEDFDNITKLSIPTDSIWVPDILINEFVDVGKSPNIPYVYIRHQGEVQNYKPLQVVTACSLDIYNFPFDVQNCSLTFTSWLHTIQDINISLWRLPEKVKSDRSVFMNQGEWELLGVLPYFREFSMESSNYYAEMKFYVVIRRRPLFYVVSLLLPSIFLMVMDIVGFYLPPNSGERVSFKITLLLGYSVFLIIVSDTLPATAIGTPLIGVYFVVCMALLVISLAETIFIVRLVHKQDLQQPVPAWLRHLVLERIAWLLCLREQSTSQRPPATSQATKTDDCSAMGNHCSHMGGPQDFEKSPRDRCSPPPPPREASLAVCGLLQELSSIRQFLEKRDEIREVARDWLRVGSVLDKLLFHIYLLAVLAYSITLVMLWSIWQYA

Sequence of 5-HT2B (P41595 whole entry, species assumed): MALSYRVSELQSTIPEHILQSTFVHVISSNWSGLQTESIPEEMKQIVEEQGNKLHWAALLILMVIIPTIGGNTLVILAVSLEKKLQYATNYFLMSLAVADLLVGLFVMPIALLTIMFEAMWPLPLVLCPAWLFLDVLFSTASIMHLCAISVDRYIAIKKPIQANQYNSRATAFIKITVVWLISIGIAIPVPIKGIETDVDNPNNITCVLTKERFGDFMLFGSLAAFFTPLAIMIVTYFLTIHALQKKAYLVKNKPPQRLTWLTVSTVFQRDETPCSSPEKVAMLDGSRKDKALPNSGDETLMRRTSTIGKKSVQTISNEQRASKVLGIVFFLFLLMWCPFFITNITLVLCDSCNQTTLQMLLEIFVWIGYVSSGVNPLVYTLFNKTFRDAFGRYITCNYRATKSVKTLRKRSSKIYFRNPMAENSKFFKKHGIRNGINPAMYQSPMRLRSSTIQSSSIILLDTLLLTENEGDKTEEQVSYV

## CNC(=O)c1cccc(Oc2ccc(NC(=O)Nc3ccc(Cl)c(C(F)(F)F)c3)cc2)c1 [HN01]
5-HT2B
  change of binding relative to sorafenib (in words): slight improvement of binding

## O=C(c1ccc(F)cc1)C1CCN(CCn2c(=O)[nH]c3ccccc3c2=O)CC1 [ketanserin]
5-HT2A F6.52L mutant
  effect of mutation on binding affinity (in words): almost no effect
5-HT2A F6.51L mutant
  decrease of binding by mutation: at least 800 fold
5-HT2A S3.36A/C mutant
  effect of mutation on binding affinity (in words): almost no effect
5-HT2A W6.48A mutant
  decrease of binding by mutation: 7 fold

## CNC(=O)c1cc(Oc2ccc(NC(=O)Nc3ccc(Cl)c(C(F)(F)F)c3)cc2)ccn1 [sorafenib]
5-HT1A
  binding (in words): weakly binds
5-HT7
  binding (in words): weakly binds
5-HT2A
  binding (in words): weakly binds
5-HT1E
  binding (in words): doesn’t bind
5-HT1B
  binding (in words): doesn’t bind
5-HT6
  binding (in words): weakly binds
5-HT5a
  binding (in words): weakly binds
5-HT3
  binding (in words): doesn’t bind
